Reference: patent publication US10435405B2, “Pyrazolopyridine compounds and uses thereof” (Incyte Corporation, priority 2016, dated 2019)
pKi: −log10 of the molar value.

target: HPK1 (Homo sapiens (Human), UniProt Q92918); test: HPK1 Kinase Binding Assay
In short: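 Active HPK1 (added as 4 nM solution) was combined with compound (3-fold, 11-point series) and tracer 222 (18 nM) plus Eu-anti-GST antibody (4 nM) in 50 mM HEPES pH 7.5 with MgCl2 and DTT. After 1 h at 25 °C plates were read. Ki values were derived.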

Sequence of HPK1 (Q92918 1-346): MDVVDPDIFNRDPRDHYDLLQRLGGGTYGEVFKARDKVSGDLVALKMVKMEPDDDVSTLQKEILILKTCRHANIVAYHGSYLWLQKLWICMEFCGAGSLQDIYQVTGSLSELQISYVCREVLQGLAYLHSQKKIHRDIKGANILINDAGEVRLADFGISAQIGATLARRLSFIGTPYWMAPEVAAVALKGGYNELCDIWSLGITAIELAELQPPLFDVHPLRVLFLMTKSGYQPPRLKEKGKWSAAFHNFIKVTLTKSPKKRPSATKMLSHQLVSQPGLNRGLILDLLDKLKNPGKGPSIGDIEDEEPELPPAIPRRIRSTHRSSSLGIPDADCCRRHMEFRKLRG

SMILES | pKi
COc1cccc(F)c1-c1cc2c(NC(=O)c3cccc(N4CCN(C)C(=O)C4)c3)n[nH]c2cn1 [Example 19, N-(5-(2-Fluoro-6-methoxyphenyl)-1H-pyrazolo[3,4-c]pyridin-3-yl)-3-(4-methyl-3-oxopiperazin-1-yl)benzamide] | ≥ 7.00
CNCc1cc(F)c(-c2cc3c(-c4ccc(N5CCOCC5)nc4)n[nH]c3cn2)c(C(F)(F)F)c1 [Example 121, 1-(3-Fluoro-4-(3-(6-morpholinopyridin-3-yl)-1H-pyrazolo[3,4-c]pyridin-5-yl)-5-(trifluoromethyl)phenyl)-N-methylmethanamine] | ≥ 7.00
CNCc1cc(F)c(-c2cc3c(-c4cnn(C)c4)n[nH]c3cn2)c(C(F)(F)F)c1 [Example 131, 1-(3-Fluoro-4-(3-(1-methyl-1H-pyrazol-4-yl)-1H-pyrazolo[3,4-c]pyridin-5-yl)-5-(trifluoromethyl)phenyl)-N-methylmethanamine] | ≥ 7.00
CC(C)NCc1cc(F)c(-c2cc3c(NC(=O)c4ccc(N5CCN(C)CC5)cc4)n[nH]c3cn2)c(F)c1 [Example 140, N-(5-(2,6-Difluoro-4-((isopropylamino)methyl)phenyl)-1H-pyrazolo[3,4-c]pyridin-3-yl)-4-(4-methylpiperazin-1-yl)benzamide] | ≥ 7.00
Cc1cccc(F)c1-c1cc2c(-c3ccc(N4CCN(C)CC4)cc3)n[nH]c2cn1 [Example 49, 5-(2-Fluoro-6-methylphenyl)-3-(4-(4-methylpiperazin-1-yl)phenyl)-1H-pyrazolo[3,4-c]pyridine] | ≥ 7.00
Cc1c(CN2CCC2)ccc(F)c1-c1cc2c(-c3cnn(C)c3)n[nH]c2cn1 [Example 94, 5-(3-(Azetidin-1-ylmethyl)-6-fluoro-2-methylphenyl)-3-(1-methyl-1H-pyrazol-4-yl)-1H-pyrazolo[3,4-c]pyridine] | ≥ 7.00
CN(C)c1ccc(F)c(-c2cc3c(-c4cnn(C)c4)n[nH]c3cn2)c1F [Example 62, 2,4-Difluoro-N,N-dimethyl-3-(3-(1-methyl-1H-pyrazol-4-yl)-1H-pyrazolo[3,4-c]pyridin-5-yl)aniline] | ≥ 7.00
COc1cccc(F)c1-c1cc2c(NC(=O)c3ccc(C)cc3)n[nH]c2cn1 [Example 2, N-(5-(2-Fluoro-6-methoxyphenyl)-1H-pyrazolo[3,4-c]pyridin-3-yl)-4-methylbenzamide] | ≥ 7.00
COc1cccc(F)c1-c1cc2c(NC(=O)c3cccc(C#N)c3)n[nH]c2cn1 [Example 7, 3-Cyano-N-(5-(2-fluoro-6-methoxyphenyl)-1H-pyrazolo[3,4-c]pyridin-3-yl)benzamide] | ≥ 7.00
Cc1cc(NC(=O)CN2CCCC2)cc(F)c1-c1cc2c(-c3cnn(C)c3)n[nH]c2cn1 [Example 80, N-(3-Fluoro-5-methyl-4-(3-(1-methyl-1H-pyrazol-4-yl)-1H-pyrazolo[3,4-c]pyridin-5-yl)phenyl)-2-(pyrrolidin-1-yl)acetamide] | ≥ 7.00
CN1CCN(c2ccc(C(=O)Nc3n[nH]c4cnc(-c5c(F)cc(CN6CCC6)cc5F)cc34)cc2)CC1 [Example 142, N-(5-(4-(Azetidin-1-ylmethyl)-2,6-difluorophenyl)-1H-pyrazolo[3,4-c]pyridin-3-yl)-4-(4-methylpiperazin-1-yl)benzamide] | ≥ 7.00
COC1CCCN(Cc2ccc(F)c(-c3cc4c(-c5cnn(C)c5)n[nH]c4cn3)c2F)C1 (stereo not drawn) [Example 130, 5-(2,6-Difluoro-3-((3-methoxypiperidin-1-yl)methyl)phenyl)-3-(1-methyl-1H-pyrazol-4-yl)-1H-pyrazolo[3,4-c]pyridine] | ≥ 7.00
CNCc1cc(C)c(-c2cc3c(-c4cnn(C5CC5)c4)n[nH]c3cn2)c(F)c1 [Example 134, 1-(4-(3-(1-Cyclopropyl-1H-pyrazol-4-yl)-1H-pyrazolo[3,4-c]pyridin-5-yl)-3-fluoro-5-methylphenyl)-N-methylmethanamine] | ≥ 7.00
COc1cccc(F)c1-c1cc2c(NC(=O)c3ccc(F)c(F)c3)n[nH]c2cn1 [Example 12, 3,4-Difluoro-N-(5-(2-fluoro-6-methoxyphenyl)-1H-pyrazolo[3,4-c]pyridin-3-yl)benzamide] | ≥ 7.00
CNCc1ccc(-c2cc3c(-c4cnn(C)c4)n[nH]c3cn2)c(C(F)(F)F)c1 [Example 112, N-Methyl-1-(4-(3-(1-methyl-1H-pyrazol-4-yl)-1H-pyrazolo[3,4-c]pyridin-5-yl)-3-(trifluoromethyl)phenyl)methanamine] | ≥ 7.00

Further lines, results first:

pKi | SMILES
≥ 7.00 | CN1CCN(c2ccc(-c3n[nH]c4cnc(-c5c(F)cc6c(c5F)C(O)CC6)cc34)cn2)CC1 (stereo not drawn) [Example 213, 5,7-Difluoro-6-(3-(6-(4-methylpiperazin-1-yl)pyridin-3-yl)-1H-pyrazolo[3,4-c]pyridin-5-yl)-2,3-dihydro-1H-inden-1-ol]
≥ 7.00 | CNC(=O)c1ccc(-c2n[nH]c3cnc(-c4c(F)cc5c(c4F)CCCC5NC)cc23)cc1 (stereo not drawn) [Example 201, 4-(5-(1,3-Difluoro-5-(methylamino)-5,6,7,8-tetrahydronaphthalen-2-yl)-1H-pyrazolo[3,4-c]pyridin-3-yl)-N-methylbenzamide]
≥ 7.00 | Cc1cc(CN2CCC2)cc(F)c1-c1cc2c(-c3cnn(C)c3)n[nH]c2cn1 [Example 182, 5-(4-(Azetidin-1-ylmethyl)-2-fluoro-6-methylphenyl)-3-(1-methyl-1H-pyrazol-4-yl)-1H-pyrazolo[3,4-c]pyridine]
≥ 7.00 | CNCc1cc(F)c(-c2cc3c(-c4ccc(N5CCC(F)C5)cn4)n[nH]c3cn2)c(F)c1 (stereo not drawn) [Example 167, 1-(3,5-Difluoro-4-(3-(5-(3-fluoropyrrolidin-1-yl)pyridin-2-yl)-1H-pyrazolo[3,4-c]pyridin-5-yl)phenyl)-N-methylmethanamine]
≥ 7.00 | Cc1cc(CNC(C)C)cc(F)c1-c1cc2c(-c3cnn(C)c3)n[nH]c2cn1 [Example 178, N-(3-Fluoro-5-methyl-4-(3-(1-methyl-1H-pyrazol-4-yl)-1H-pyrazolo[3,4-c]pyridin-5-yl)benzyl)propan-2-amine]
≥ 7.00 | Cc1cc(CN2CCC(O)C2)cc(F)c1-c1cc2c(-c3cnn(C)c3)n[nH]c2cn1 (stereo not drawn) [Example 183, 1-(3-Fluoro-5-methyl-4-(3-(1-methyl-1H-pyrazol-4-yl)-1H-pyrazolo[3,4-c]pyridin-5-yl)benzyl)pyrrolidin-3-ol]
≥ 7.00 | CCNCc1cccc(-c2cc3c(-c4cnn(C)c4)n[nH]c3cn2)c1C(F)(F)F [Example 237, N-(3-(3-(1-Methyl-1H-pyrazol-4-yl)-1H-pyrazolo[3,4-c]pyridin-5-yl)-2-(trifluoromethyl)benzyl)ethanamine]
≥ 7.00 | COC1CN(Cc2cc(C)c(-c3cc4c(-c5cnn(C)c5)n[nH]c4cn3)c(F)c2)C1 [Example 185, 5-(2-Fluoro-4-((3-methoxyazetidin-1-yl)methyl)-6-methylphenyl)-3-(1-methyl-1H-pyrazol-4-yl)-1H-pyrazolo[3,4-c]pyridine]
≥ 7.00 | Cn1cc(-c2n[nH]c3cnc(-c4c(F)cc(C5CCCN5)cc4C(F)(F)F)cc23)cn1 (single isomer, unassigned) [Example 227, 5-(2-Fluoro-4-(pyrrolidin-2-yl)-6-(trifluoromethyl)phenyl)-3-(1-methyl-1H-pyrazol-4-yl)-1H-pyrazolo[3,4-c]pyridine]
≥ 7.00 | CNC1CCc2c1cc(F)c(-c1cc3c(-c4cnn(C)c4)n[nH]c3cn1)c2F (stereo not drawn) [Example 198, 4,6-Difluoro-N-methyl-5-(3-(1-methyl-1H-pyrazol-4-yl)-1H-pyrazolo[3,4-c]pyridin-5-yl)-2,3-dihydro-1H-inden-1-amine]
≥ 7.00 | Cc1cccc(F)c1-c1cc2c(NC(=O)c3ccc(N4CCN(C)CC4)cc3)n[nH]c2cn1 [Example 152, N-(5-(2-Fluoro-6-methylphenyl)-1H-pyrazolo[3,4-c]pyridin-3-yl)-4-(4-methylpiperazin-1-yl)benzamide]
≥ 7.00 | CNCc1cc(F)c(-c2ncc3[nH]nc(-c4cnn(C)c4)c3c2OC)c(F)c1 [Example 215, 1-(3,5-Difluoro-4-(4-methoxy-3-(1-methyl-1H-pyrazol-4-yl)-1H-pyrazolo[3,4-c]pyridin-5-yl)phenyl)-N-methylmethanamine]
